Assay results published in EP1096933B1, “USE OF AN INHIBITOR OF CYTOCHROME P450 OPTIONALLY COMBINED WITH AN ANTIFUNGAL AGENT FOR TREATING MYCOSES” (priority 1998, dated 2000).
Read-outs that look alike come from different tables or passages of the source.

Tests used:
Experiment in all cases: growth of strains streaked on Sabouraud agar containing the products
Assay type in all cases: cell-based
Trichophyton violaceum = conditions: Tric.Violaceum, read-out: % DE CROISSANCE
Protocol: (§1) Ces molécules ont été incorporées dans un milieu gélosé dit de Sabouraud (peptone 10g/l, glucose 10 g/l, gomme agar 15 g/l).
(§2) Des souches de diverses espèces de champignons ont été ensemencées par stries par la méthode de Stires.
(§3) Le pourcentage de croissance a été mesuré au cours du temps, pour des périodes allant jusqu'à 21 jours, pour certaines des souches testées.
(§4) Les quantités de pipéronyl butoxyde, et de cyclopyroxolamine utilisées sont identiques et sont de 10 ou 20 µg/ml dans le cas de l'association entre ces deux composés.
(§5) Dans le cas de l'association entre le pipéronyl butoxyde et l'éconazole, elles sont respectivement de 10 ou 20 µg/ml de pipéronyl butoxyde et de 1 µg/ml d'éconazole.
(§6) Des souches appartenant aux espèces suivantes ont été testées: Microsporum canis, Trichophyton rubrum, Trichophyton interdigitale, Trichophyton mentagrophytes, Microsporum persicolor, Epidermophyton floccosum, Trichophyton violaceum et Trichophyton soudanense.
(§7) L'activité du pipéronyl butoxyde seul a été testée à diverses concentrations, comme indiqué dans le tableau 1 sur le milieu de Sabouraud, dépourvu de tout autre fongicide.

Trichophyton rubrum = conditions: Tric.Rubrum, read-out: % DE CROISSANCE
Protocol: as §1, §2, §3, §4, §5, §6, §7

[1] = test system: Trichophyton mentagrophytes; conditions: Tric.Mentagophytes, read-out: % DE CROISSANCE
Protocol: as §1, §2, §3, §4, §5, §6, §7

Trichophyton soudanense = conditions: Tric.Soudanese, read-out: % DE CROISSANCE
Protocol: as §1, §2, §3, §4, §5, §6, §7

Epidermophyton floccosum = conditions: Epid.Flocosum, read-out: % DE CROISSANCE
Protocol: as §1, §2, §3, §4, §5, §6, §7

[2] = test system: Trichophyton interdigitale; conditions: Tric.Interdigitale, read-out: % DE CROISSANCE
Protocol: as §1, §2, §3, §4, §5, §6, §7

Microsporum canis = conditions: read-out: % DE CROISSANCE; for activity at 1 µg/mL: Micro. Canis
Protocol: as §1, §2, §3, §4, §5, §6, §7

Microsporum persicolor = conditions: Nannizzia persicolor, Micro.Persicolor, read-out: % DE CROISSANCE; for activity at 10 µg/mL: 10µg/ml each product; for activity at 1 µg/mL: Econazole 1µg/ml
Protocol: as §1, §2, §3, §4, §5, §6, §7

[3] = 144 h, J6, 10µg/ml each product
[4] = 240 h, J10, 10µg/ml each product
[5] = 336 h, J14, 10µg/ml each product
[6] = 144 h, J6, 20µg/ml each product
[7] = 240 h, J10, 20µg/ml each product
[8] = 336 h, J14, 20µg/ml each product

Cc1cc(C2CCCCC2)n(O)c(=O)c1 [Cyclopiroxolamine, cyclopiroxolamine]
activity at 10 µg/mL (Trichophyton violaceum; 0 h, J0, 10µg/ml each product): 0%
activity at 10 µg/mL (Trichophyton violaceum; 96 h, J4, 10µg/ml each product): 0%
activity at 10 µg/mL (Trichophyton violaceum; [3]): 40%
activity at 10 µg/mL (Trichophyton violaceum; [4]): 60%
activity at 10 µg/mL (Trichophyton violaceum; [5]): 100%
activity at 20 µg/mL (Trichophyton rubrum; 0 h, J0, 20µg/ml each product): 0%
activity at 20 µg/mL (Trichophyton rubrum; 96 h, J4, 20µg/ml each product): 0%
activity at 20 µg/mL (Trichophyton rubrum; [6]): 50%
activity at 20 µg/mL (Trichophyton rubrum; [7]): 80%
activity at 20 µg/mL (Trichophyton rubrum; [8]): 100%
activity at 20 µg/mL ([1]; 0 h, J0, 20µg/ml each product): 0%
activity at 20 µg/mL ([1]; 96 h, J4, 20µg/ml each product): 5%
activity at 20 µg/mL [1, 6]: 60%
activity at 20 µg/mL [1, 7]: 100%
activity at 20 µg/mL [1, 8]: 100%
activity at 10 µg/mL (Trichophyton soudanense; 0 h, J0, 10µg/ml each product): 0%
activity at 10 µg/mL (Trichophyton soudanense; 96 h, J4, 10µg/ml each product): 0%
activity at 10 µg/mL (Trichophyton soudanense; [3]): 0%
activity at 10 µg/mL (Trichophyton soudanense; [4]): 30%
activity at 10 µg/mL (Trichophyton soudanense; [5]): 60%
activity at 10 µg/mL (Epidermophyton floccosum; 0 h, J0, 10µg/ml each product): 0%
activity at 10 µg/mL (Epidermophyton floccosum; 96 h, J4, 10µg/ml each product): 0%
activity at 10 µg/mL (Epidermophyton floccosum; [3]): 0%
activity at 10 µg/mL (Epidermophyton floccosum; [4]): 85%
activity at 10 µg/mL (Epidermophyton floccosum; [5]): 100%
activity at 20 µg/mL ([2]; 0 h, J0, 20µg/ml each product): 0%
activity at 20 µg/mL ([2]; 96 h, J4, 20µg/ml each product): 5%
activity at 20 µg/mL [2, 6]: 10%
activity at 20 µg/mL [2, 7]: 80%
activity at 20 µg/mL [2, 8]: 90%
activity at 20 µg/mL (Microsporum canis; 0 h): 0%
activity at 20 µg/mL (Microsporum canis; 96 h): 5%
activity at 20 µg/mL (Microsporum canis; 144 h): 20%
activity at 20 µg/mL (Microsporum canis; 240 h): 60%
activity at 20 µg/mL (Microsporum canis; 336 h): 100%
activity at 10 µg/mL (Microsporum persicolor; 0 h, J0): 0%
activity at 10 µg/mL (Microsporum persicolor; 96 h, J4): 0%
activity at 10 µg/mL (Microsporum persicolor; 144 h, J6): 30%
activity at 10 µg/mL (Microsporum persicolor; 240 h, J10): 75%
activity at 10 µg/mL (Microsporum persicolor; 336 h, J14): 100%

Clc1ccc(COC(Cn2ccnc2)c2ccc(Cl)cc2Cl)cc1 (centres unmarked) [Econazole, éconazole]
activity at 1 µg/mL (Trichophyton violaceum; 0 h, J0, Econazole 1µg/ml): 0%
activity at 1 µg/mL (Trichophyton violaceum; 96 h, J4, Econazole 1µg/ml): 0%
activity at 1 µg/mL (Trichophyton violaceum; 144 h, J6, Econazole 1µg/ml): 40%
activity at 1 µg/mL (Trichophyton violaceum; 240 h, J10, Econazole 1µg/ml): 60%
activity at 1 µg/mL (Trichophyton violaceum; 336 h, J14, Econazole 1µg/ml): 100%
activity at 1 µg/mL (Trichophyton rubrum; 0 h, J0, Econazole 1µg/ml): 0%
activity at 1 µg/mL (Trichophyton rubrum; 96 h, J4, Econazole 1µg/ml): 0%
activity at 1 µg/mL (Trichophyton rubrum; 144 h, J6, Econazole 1µg/ml): 20%
activity at 1 µg/mL (Trichophyton rubrum; 240 h, J10, Econazole 1µg/ml): 60%
activity at 1 µg/mL (Trichophyton rubrum; 336 h, J14, Econazole 1µg/ml): 70%
activity at 1 µg/mL ([1]; 0 h, J0, Econazole 1µg/ml): 0%
activity at 1 µg/mL ([1]; 96 h, J4, Econazole 1µg/ml): 5%
activity at 1 µg/mL ([1]; 144 h, J6, Econazole 1µg/ml): 10%
activity at 1 µg/mL ([1]; 240 h, J10, Econazole 1µg/ml): 30%
activity at 1 µg/mL ([1]; 336 h, J14, Econazole 1µg/ml): 40%
activity at 1 µg/mL (Trichophyton soudanense; 0 h, J0, Econazole 1µg/ml): 0%
activity at 1 µg/mL (Trichophyton soudanense; 96 h, J4, Econazole 1µg/ml): 0%
activity at 1 µg/mL (Trichophyton soudanense; 144 h, J6, Econazole 1µg/ml): 0%
activity at 1 µg/mL (Trichophyton soudanense; 240 h, J10, Econazole 1µg/ml): 30%
activity at 1 µg/mL (Trichophyton soudanense; 336 h, J14, Econazole 1µg/ml): 60%
activity at 1 µg/mL (Epidermophyton floccosum; 0 h, J0, Econazole 1µg/ml): 0%
activity at 1 µg/mL (Epidermophyton floccosum; 96 h, J4, Econazole 1µg/ml): 0%
activity at 1 µg/mL (Epidermophyton floccosum; 144 h, J6, Econazole 1µg/ml): 0%
activity at 1 µg/mL (Epidermophyton floccosum; 240 h, J10, Econazole 1µg/ml): 5%
activity at 1 µg/mL (Epidermophyton floccosum; 336 h, J14, Econazole 1µg/ml): 10%
activity at 1 µg/mL ([2]; 0 h, J0, Econazole 1µg/ml): 0%
activity at 1 µg/mL ([2]; 96 h, J4, Econazole 1µg/ml): 5%
activity at 1 µg/mL ([2]; 144 h, J6, Econazole 1µg/ml): 5%
activity at 1 µg/mL ([2]; 240 h, J10, Econazole 1µg/ml): 40%
activity at 1 µg/mL ([2]; 336 h, J14, Econazole 1µg/ml): 60%
activity at 1 µg/mL (Microsporum canis; 0 h, J0, Econazole 1µg/ml): 0%
activity at 1 µg/mL (Microsporum canis; 96 h, J4, Econazole 1µg/ml): 0%
activity at 1 µg/mL (Microsporum canis; 144 h, J6, Econazole 1µg/ml): 10%
activity at 1 µg/mL (Microsporum canis; 240 h, J10, Econazole 1µg/ml): 40%
activity at 1 µg/mL (Microsporum canis; 336 h, J14, Econazole 1µg/ml): 80%
activity at 1 µg/mL (Microsporum persicolor; 0 h, J0): 0%
activity at 1 µg/mL (Microsporum persicolor; 96 h, J4): 0%
activity at 1 µg/mL (Microsporum persicolor; 144 h, J6): 0%
activity at 1 µg/mL (Microsporum persicolor; 240 h, J10): 15%
activity at 1 µg/mL (Microsporum persicolor; 336 h, J14): 50%
